Experimental data from article PMC12914960, “Repurposing a detrimental antibody epitope as targeted therapeutics for sepsis and rheumatoid arthritis” (Military Medical Research, 2026).
Where a SMILES comes first, the peptide text is derived from it.

Tests used:
[1] = tested on: CLP-induced sepsis in BALB/c mice; experiment: Septic survival after cecal ligation and puncture (CLP); type: in vivo, mouse; settings: i.p.
Description: Experimental sepsis was induced in BALB/c mice via CLP as previously described. […] The animals were randomly assigned to the control vehicle (n = 10 or n = 20) or experimental groups (n = 10 or n = 20). P2 (5.0 mg/kg), P2-1 (0.1 mg/kg or 1.0 mg/kg), or tetranectin N-terminal deletion mutant (ΔTN) (1.0 mg/kg) were administered intraperitoneally (i.p.) at the indicated time points, and survival rates were monitored. To elucidate P2-1’s protective mechanisms, a separate group of BALB/c mice (n = 4) underwent CLP and received P2-1 (1.0 mg/kg) at 2 h and 20 h post-CLP. At 24 h post-CLP, the animals were euthanized, blood was collected, and serum cytokines and chemokines were measured via murine cytokine antibody arrays as previously described. More details are presented in Additional file 1: Methods.
For these preclinical studies, animals were random ly assigned to experimental groups and treated with P2, P2-1, or a pCTS-L-neutralizing mAb2 according to the indicated dosing regimens. Outcomes, including septic survival rates, arthritis severity, pain sensitivity, and joint tissue histology scores, were collected under blinded experiment al conditions. The study d esign and sample si zes fo r each exp eriment are d etailed in the figure legends. No data, including outlier values, were excluded. For skewed data, outliers were defined via the interquartile range (IQR) method as any value below Q 1 –(1.5 × IQR) or above Q 3 + (1.5 × IQR). For normally distributed data, outliers were defined via the Z-score method as any value with an absolute Z-score greater than 2 or 3. The primary data are reported in Additional file 4. All the reagent sources are listed in Additional file 1: Table S1 .
Cecal ligation and puncture (CLP) sepsis model […]
screening. c Expression and purification of recombinant full-length human TN (residues 1 – 181) and its N-terminal deletion mutant ( ΔTN, residues 45 – 181). […] Recombinant Δ TN was given intraperitoneally at 24 h and 48 h post-C L P, and animal survival rates were monitored. *P < 0.0 5. […]

human PBMCs = experiment: RNA-seq of HMGB1-stimulated PBMCs; type: cell-based
Description: Total RNA was isolated from human PBMCs (n = 6 biological replicates) stimulated with HMGB1 in the absence or presence of P2-1 (5.0 or 10.0 µg/ml) via the RNeasy Mini Kit (Qiagen, Germantown, MD, USA) according to the manufacturer’s instructions. cDNA libraries were prepared using the TruSeq RNA Library Prep Kit v2 (Illumina, San Diego, CA, USA) and sequenced on an Illumina NovaSeq 6000 platform to generate 100 bp paired-end reads. Gene counts were quantified via StringTie and DESeq2 for differential gene expression analysis. Volcano plots and heatmaps were generated via ggplot2 and pheatmap packages in R, respectively. Genes with an adjusted P-value < 0.05 and a |log2 fold change|> 1 were considered differentially expressed. […]
custom-synthesized (Gen Script, Piscataway, NJ, USA). P2 -1 was engineered to: i) increase solubility by removing a w ater-insoluble phenylalanine (F) at the C-terminal residue 70 and introducing a water-soluble threonine (T) at N-t erminal residue 54; and ii) reduce oxidative susceptibility by substituting methionine (M) with norleucine (Nle) and cysteine (C) with serine (S), respectively. The pCTS -L-neutralizing mAbs (mAb2) and TN-neutrali zing mAbs (mAb8 and m Ab9) were generated in BALB/c and C57BL/6 m ice as previously described .
RNA sequencing (RNA- Seq) and bioinformatics analysis
Total RNA was isolated from human PBMCs (n= 6 biological replicates) stimulated with HMGB1 in the absence o r pres ence o f P2-1 (5.0 or 10.0 µg/ml) via the RNeasy Mini Kit (Qiagen, Germantown, MD, USA) according to the manufacturer ’s instructions. RNA quantity and quality were assessed via a NanoDrop spectrophotometer, which requires A260/280 and A260/230 ratios to both be > 1.8. Samples meeting these criteria were then sent to two sequencing facilities, where RNA integrity was further confirmed via an Agilent Bioanalyzer. Only samples with an RNA integrity number of 8 or above were accepted for RNA sequencing. cDNA libraries were prepared using the TruSeq RNA Library Prep Kit v2 (Illumina, San Diego, CA, USA) and sequenced on an Illumina NovaSeq 6000 platform to generat e 100 bp paired-end reads. Our data filtering criteria adhered to industry best practices to ensure data quality.
First, raw sequencing reads underwent quality assessment with FastQC, followed by adapter and low-quality nucleotide trimming using Trimmomatic v.0.36. Subsequently, the high- quality reads wer e aligned to the Homo sapiens GRCh38 reference genome using the STAR aligner v.2.5.2b. Following alignment, PCR duplicates were identified and removed with Picard tools to mitigate amplification bias. Before differential expression an alysis, the gene count matrix was filtered to retain only genes with a count-per-million (CPM) > 1 in at least three samples (n = 3, representing our smallest experimental group). This rigorous procedure ensured that analysis was perfo rmed on a robust set of reliably expressed gen es. Finally, gene counts were quantified via StringTie and DESeq2 for differential gene expression analysis. Volcano

CCCC[C@H](NC(=O)[C@H](Cc1c[nH]cn1)NC(=O)[C@@H](NC(=O)[C@H](CCCCN)NC(=O)[C@@H](N)[C@@H](C)O)C(C)C)C(=O)N[C@@H](CCCCN)C(=O)N[C@@H](CO)C(=O)N[C@@H](Cc1ccccc1)C(=O)N[C@@H](CC(C)C)C(=O)N[C@@H](C)C(=O)N[C@@H](Cc1ccccc1)C(=O)N[C@@H](CCC(N)=O)C(=O)N[C@H](C(=O)N[C@@H](CCCCN)C(=O)N[C@H](C(=O)O)[C@@H](C)O)[C@@H](C)O [P2-1] (HELM PEPTIDE1{T.K.V.H.[Nle].K.S.F.L.A.F.Q.T.K.T}$$$$V2.0; N-terminus and C-terminus assumed)
septic survival, in words ([1]; P2-1 0.1 mg/kg at 2, 20, 28, 44, and 52 h post-CLP): conferred significant protection against sepsis
septic survival, in words ([1]; P2-1 1.0 mg/kg at 24 h and 48 h post-CLP): potent protection against lethal sepsis even with delayed therapeutic administration
Ctsl mRNA upregulation (human PBMCs; HMGB1 + P2-1 5.0 µg/ml, human PBMCs): 2.4 ± 0.1 -fold
HMGB1-induced transcriptional changes, in words (human PBMCs; HMGB1 with P2-1, human PBMCs): did not broadly reverse HMGB1-induced transcriptional changes in most genes
